Test results reported in paper PMC3402085 (ACS medicinal chemistry letters, 2012).

Experiments:
primary cortical neurons = test: Primary cortical neuron protection assay; format: cell-based; details: result in words
[1] = system: PC-12 cells expressing mutant G93A SOD1; test: Mutant SOD1-induced cytotoxicity protection assay; format: cell-based; details: result in words
[2] = system: PC-12 cells expressing mutant G93A SOD1; details: result in words; previously prepared compound; cited from earlier work

| Structure (SMILES) | activity in cortical neurons (primary cortical neurons) | protection against mutant SOD1 induced toxicity in PC-12 cells [1] | inhibition of protein aggregation in PC-12 cells expressing mutant G93A SOD1 [2] |
| --- | --- | --- | --- |
| C[C@H](Oc1cc(C(F)(F)F)cc(C(F)(F)F)c1)C1CC(=O)CC(=O)C1 [1b] | active | protective | – |
| O=C1CC(=O)CC([C@@H]2C[C@H]2c2cc(C(F)(F)F)cc(C(F)(F)F)c2)C1 [2b] | active | protective | – |
| O=C1CC(=O)CC(c2cc(C(F)(F)F)cc(C(F)(F)F)c2)C1 [compound 13] | – | – | potent inhibitor |
